Publication PMC4977052, “On the Utility of ToxCast™ and ToxPi as Methods for Identifying New Obesogens” (Environmental Health Perspectives, 2016)
Where “and” joins values, the source holds several entries; their conditions need not be identical. Equal entries are not always repeated. Where two headings read alike, the source gives them in different places.

How the values were obtained:
[1] = test system: PPARγ; parameters: method as in Filer et al. 2014; settings: ref Filer et al. 2014, cited from earlier work; for AC50: PPARγ, NA = not active, read-out: NCGC Antag. AC50, 2014 Release
[2] = test system: 3T3-L1 preadipocytes; experiment: 3T3-L1 adipogenesis assay (lipid accumulation, adipogenic gene expression); type: cell-based; settings: 0.02-20 μM, 5 days after MDI induction
Description: 3T3-L1 cells (ATCC) were maintained in high-glucose DMEM supplemented with 10% fetal bovine serum, 2 mM L-glutamine, 50 IU/mL penicillin, and 50 μg/mL streptomycin. A total of 2 × 10^4 cells per well were seeded in 12-well plates. After 48 hr, cells were exposed to the adipogenic cocktail MDI (500 μM isobutylmethylxanthine, 0.25 nM dexamethasone and 5 μg/mL insulin), 8 μg/mL biotin and 8 μg/mL pantothenate for 2 days. Induction media was removed and cells were exposed to test chemicals during 5 days, replacing the media every 2 days. Rosiglitazone (ROSI) and tributyltin (TBT) were used as positive controls at 100 nM and 50 nM final concentrations, respectively. All ToxCast™ chemicals were tested at 0.02, 0.2, 2, and 20 μM, and DMSO concentration was maintained at 0.1% across all treatments. If the chemical was toxic at 20 μM, we repeated the experiment at 10 μM.
Cells were either fixed in 3.7% formaldehyde in phosphate-buffered saline (PBS) for 30 min at room temperature (RT) for lipid quantitation, or homogenized in TriPure (Roche, Mannheim, Germany) for gene expression analysis. For lipid quantitation, fixed cells were washed twice with PBS and maintained in PBS overnight at 4°C to release residual phenol red. Background of cells were measured prior to staining. Cells were stained with 1 μg/mL Nile red (CAS No. 7385-67-3) (to detect lipid accumulation) and 1 μg/mL Hoechst 33342 (ThermoFisher Scientific) (to detect nuclei as a surrogate for cell number) in PBS for 15 min in the dark at RT and washed twice with PBS. […] Background values of Hoechst and Nile red were subtracted from the RFUs after staining and the ratio RFUNile Red:RFUHoechst was calculated. Data are represented as mean ± SEM. Total RNA was isolated using TriPure (Roche) as recommended by the manufacturer. Reverse transcription and quantitative real-time RT-PCR (QPCR) were performed using Transcriptor RT and SYBR® Green Master Mix (Roche). cDNA was quantitated in a LightCycler® 480 System (Roche Diagnostics, Basel, Switzerland) using primer sets listed in Table S4. Each primer set amplified a single band as determined by gel electrophoresis and melting curve analysis. QPCR data were analyzed using the 2^ΔΔCt method ([Livak and Schmittgen 2001]) relative to ribosomal protein 36b4, normalizing to 0.1% DMSO vehicle. Error bars represent the SEM from four to six biological replicates calculated using standard propagation of error ([Bevington and Robinson 2003]).

[3] = target: T1, GAL4-mPPARγ (Mus musculus, UniProt P37238); experiment: GAL4-mPPARγ activation, transient transfection luciferase reporter in COS7 cells; type: cell-based
T1 construct: expressed in transfected cells; host or cells: COS7
Description: (§1) pCMX-Gal4, pCMX-Gal4-mPPARγ, and pCMX-Gal4-hRXRα were previously described ([Grün et al. 2006]). Transient transfections were performed in COS7 cells as described ([Chamorro-García et al. 2012]). Briefly, COS7 cells were seeded at 15,000 cells per well in 96-well tissue culture plates in 10% calf bovine serum. The following day, cells were transfected in Opti-MEM at ~ 90% confluency. One microgram of CMX-GAL4 effector plasmid was co-transfected with 5 μg tk-(MH100)4-luciferase reporter and 5 μg of CMX-β-galactosidase transfection control plasmids in Opti-MEM® using Lipofectamine® 2000 reagent (Invitrogen™ Life Technologies, Carlsbad, CA, USA), following the manufacturer’s recommended protocol. All chemicals were solvated in dimethyl sulfoxide (DMSO). After overnight incubation, the medium was replaced with Dulbecco’s Modified Eagle Medium (DMEM; HyClone, Logan, UT, USA), 10% resin charcoal stripped fetal bovine serum (FBS) plus ligands at concentrations indicated in the figure legends for an additional 24 hr. DMSO concentration was maintained at 0.05% across all chemical treatments. Cells were lysed and assayed for luciferase and β-galactosidase activity as previously described ([Forman et al. 1995]). All transfections were performed in triplicate and reproduced in multiple experiments. Data are reported as fold induction or reduction over vehicle ([…]) controls ± SEM (standard error of the mean) using standard propagation of error ([Bevington and Robinson 2003]). […] The EC50, EC10, IC50, and IC10 values from NCGC and ToxCast™ are reported from gain AC50 and AC10 values in the ToxCast™ 2014 release ([Filer et al. 2014]).
(§2) Figure 1 ToxCast™ Chemical Activity on PPARγ. The ability of a graded dose series of ToxCast™ chemicals to (A) activate or (B) antagonize GAL4-mPPARγ was tested in transiently transfected COS7 cells. (A, B) Data points are averages of triplicate transfections (three biological replicates). […] Data are depicted as (A) fold induction or (B) reduction over vehicle (0.05% DMSO) controls ± SEM. (A) ToxCast™ chemicals were tested in 3-fold serial dilutions from 100 μM through 0.137 μM, with the final data point being 0.05% DMSO. Rosiglitazone serves as a positive control activator. (B) ToxCast™ chemicals were tested in 3-fold serial dilutions from 100 μM, in competition with 50 nM rosiglitazone (Rosi). […] (C) EC50, EC10, IC50, and IC10 values calculated from A and B are reported and compared to commercial assays (see Figure S1). Note: ATG, Attagene GAL-PPARγ activation assay; NCGC, GeneBLAzer® agonist (EC values) or antagonist (IC values) assays. Triphenyltin was previously published ([Kanayama et al. 2005]).
(§3) Figure 4 ToxPi Chemical Activity on PPARγ and RXRα. The ability of a graded dose series of ToxPi chemicals to activate (A) GAL4-mPPARγ or (B) GAL4-hRXRα was tested in transiently transfected COS7 cells. (A, B) Data points are averages of triplicate transfections (three biological replicates). […] ToxPi chemicals were tested in 3-fold serial dilutions from 100 μM through 0.137 μM, with the final data point being 0.05% DMSO. Data are depicted as fold induction over vehicle (0.05% DMSO) controls ± SEM. (A) Rosiglitazone serves as a positive control activator for GAL4-mPPARγ. (B) LG100268 (2-[1-(3,5,5,8,8-Pentamethyl-5,6,7,8-tetrahydro-2-naphthyl)cyclopropyl]pyridine-5-carboxylic acid) serves as a positive control activator for GAL4-hRXRα. (C) EC50 and EC10 values calculated from A and B are reported and compared to other assays (see Figure S1). ATG, Attagene GAL-PPARγ or GAL-RXRα activation assay; NCGC, GeneBLAzer® GAL-PPARγ or GAL-RXRα activation assays. Triphenyltin was previously published ([Kanayama et al. 2005]).

[4] = test system: PPARγ; settings: PPARγ, NA = not active, cited from earlier work
[5] = target: T1, GAL4-mPPARγ; experiment: GAL4-mPPARγ antagonism in competition with 50 nM rosiglitazone, transiently transfected COS7 cells; type: cell-based
Description: as §1, §2

[6] = test system: COS7 cells; experiment: Cytotoxicity in transfected COS7 cells measured as decreased β-galactosidase activity; settings: transfected COS7 cells, 24 hr
Description: as §1, §2

[7] = test system: Human PPARγ; settings: PPARγ direct binding, NA = not active, cited from earlier work
[8] = test system: LXRβ; parameters: method as in Knudsen et al. 2011; settings: ToxCast Phase I 2011 release; NA = not active; ref Knudsen et al. 2011; read-out: ATGT LXRβ AC50; cited from earlier work
[9] = test system: LXRα; parameters: method as in Knudsen et al. 2011; settings: ToxCast Phase I 2011 release; NA = not active; ref Knudsen et al. 2011; read-out: ATGT LXRα AC50; cited from earlier work
[10] = test system: C/EBP; parameters: method as in Knudsen et al. 2011; settings: ToxCast Phase I 2011 release; NA = not active; ref Knudsen et al. 2011; read-out: ATGC CEBP AC50; cited from earlier work
[11] = test system: PPRE; parameters: method as in Knudsen et al. 2011; settings: ToxCast Phase I 2011 release; NA = not active; ref Knudsen et al. 2011; read-out: ATGC PPRE AC50; cited from earlier work
[12] = target: T2, GAL4-hRXRα (Homo sapiens, UniProt P19793); experiment: GAL4-hRXRα activation, transient transfection luciferase reporter in COS7 cells; type: cell-based; settings: COS7, 100 μM through 0.137 μM
T2 construct: expressed in transfected cells; host or cells: COS7
Description: as §1, §3

[13] = ref Filer et al. 2014, read-out: ATG Agonist AC50, 2014 Release
[14] = ref Knudsen et al. 2011, read-out: ATG Agonist AC50, 2011 Release
[15] = ref Filer et al. 2014, read-out: NVS Agonist AC50, 2014 Release

T1 sequence (P37238 with tags, fused parts or gaps limits assumed): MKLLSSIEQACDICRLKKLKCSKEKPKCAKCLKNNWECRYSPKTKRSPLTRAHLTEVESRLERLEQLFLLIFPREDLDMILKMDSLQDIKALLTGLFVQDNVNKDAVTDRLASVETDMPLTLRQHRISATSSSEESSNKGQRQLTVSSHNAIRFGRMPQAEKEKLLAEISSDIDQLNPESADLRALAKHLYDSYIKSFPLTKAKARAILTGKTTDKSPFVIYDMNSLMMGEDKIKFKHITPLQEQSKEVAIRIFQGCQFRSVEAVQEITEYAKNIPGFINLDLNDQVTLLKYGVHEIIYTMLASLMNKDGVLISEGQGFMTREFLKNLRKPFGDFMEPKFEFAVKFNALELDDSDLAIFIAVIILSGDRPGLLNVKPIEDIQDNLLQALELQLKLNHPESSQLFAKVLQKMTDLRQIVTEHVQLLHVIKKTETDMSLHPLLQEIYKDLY
T2 sequence (P19793 with tags, fused parts or gaps limits assumed): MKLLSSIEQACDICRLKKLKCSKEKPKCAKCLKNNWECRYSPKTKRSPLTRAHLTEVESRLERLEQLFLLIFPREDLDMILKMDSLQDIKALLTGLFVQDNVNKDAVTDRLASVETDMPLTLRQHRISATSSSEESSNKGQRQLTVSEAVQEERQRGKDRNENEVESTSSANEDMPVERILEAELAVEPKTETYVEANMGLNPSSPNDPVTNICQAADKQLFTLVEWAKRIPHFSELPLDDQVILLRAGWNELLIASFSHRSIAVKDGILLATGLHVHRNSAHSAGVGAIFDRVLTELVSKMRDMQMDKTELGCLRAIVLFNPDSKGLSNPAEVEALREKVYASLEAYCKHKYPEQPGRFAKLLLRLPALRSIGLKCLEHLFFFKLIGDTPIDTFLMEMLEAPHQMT

CCc1cccc(CC)c1N(COC)C(=O)CCl [Alachlor]
PPARγ antagonists: IC10, NCGC ([1]; AC10, ToxCast 2014 release): 0.15 µM | AC50 [1]: 3.2 µM | IC50 ([1]; read-out: PPARγ antagonists: IC50, NCGC, gain AC50, ToxCast 2014 release): 3.19 µM | Adipogenesis 3T3-L1 (result in words) [2]: Negative | Activation of GAL4-PPARγ (text) ([3]; COS7, 100 μM through 0.137 μM): did not activate PPARγ | AC50 [4, 13]: 2 µM | AC50 [4, 14]: 3.7 µM | AC50 ([5]; Activation AC50 (PPARγ antagonists), Cos-7 transient transfection, competition with 50 nM rosiglitazone): 4.48 µM | Antagonism of PPARγ ([5]; COS7, competition against 50 nM rosiglitazone): weak antagonists | IC50 ([5]; COS7, in competition with 50 nM rosiglitazone): 4.48 µM | PPARγ antagonists: IC10, Fig 1B ([5]; COS7, in competition with 50 nM rosiglitazone, computed from IC50): 0.78 µM | Activation COS7 (result in words): PPARγ antagonist ([5]; Cos-7 transient transfection, competition with 50 nM rosiglitazone): PPARγ antagonist | Concentration at which cytotoxicity (decreased β-galactosidase activity) was observed [6]: 100 µM | AC50 [7, 15]: 24.9 µM | AC50 ([7]; ref Knudsen et al. 2011, read-out: NVS Agonist AC50, 2011 Release): 43 µM

Cc1ccc(-c2c(Cl)nc(C#N)n2S(=O)(=O)N(C)C)cc1 [Cyazofamid]
AC50 [1]: 32.3 µM | Adipogenesis 3T3-L1 (result in words) [2]: Negative | Activation COS7 (result in words), ToxCast PPARγ list [3]: Inactive | Activation COS7 (result in words), ToxPi chemicals [3]: Inactive | AC50 [8]: 13 µM | AC50 [4, 13]: 10.1 µM and 9.4 µM | AC50 [4, 14]: 11 µM | AC50 [9]: 11 µM | AC50 [10]: 8.7 µM | AC50 [11]: 12 µM | AC50 [7, 15]: 9.6 µM

O=C(O)COc1ccc(Cl)cc1Cl [2,4-D, 2,4-dichlorophenoxyacetic acid]
Activation of RXRα [12]: inactive
